SMILES strings stand for the structures. Calls of active or inactive are those of the source.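 How the source made its calls: active means a tumor-causing dose value with its tumor site reported for any sex and species group of a rodent or other animal cancer study; inconclusive means only studies judged inadequate by the national testing program; inactive means tested in at least one study, none positive.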

This data set can be described thus: DSSTox (CPDBAS) Carcinogenic Potency Database Summary SingleCellCall Results. Conditions: animal chronic carcinogenicity bioassays, CPDB summary call. Put shortly: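 Literature-derived summary: each substance receives an overall carcinogenic/non-carcinogenic category drawn from long-term bioassays in rats, mice, hamsters, dogs or primates, using the most positive sex-species experiment and minimal evidence criteria.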
Turning to `S=P(N1CC1)(N1CC1)N1CC1`, the outcome was active.

In the case of `O=NN1CCSCC1`, the result was active.

Take `CCSC[C@H](N)C(=O)O`: the result was inactive.

For the molecule `ClC1=C(Cl)[C@]2(Cl)[C@@H]3[C@H]4C=CC(C4)[C@@H]3C1(Cl)C2(Cl)Cl`, the outcome was active.

Regarding `O=S1(=O)N=C(O)c2ccccc21`, the outcome was inactive.

As to `Cc1ccc(Cl)cc1N`, the result was active.

Regarding `[O-][Cl+]O`, the outcome is “inactive; active”.

Consider `Cc1ccccc1`, for which the outcome was active.

As to `CC(O)CO` (configuration not stated), the outcome was inactive.

`Oc1ccc(Cl)cc1Cc1ccccc1`: the outcome was active.

As to `CN(C)/N=N/c1nc[nH]c1C(N)=O`, the result was active.

Consider `O=C1c2ccccc2-c2ccc3c4c(ccc1c24)-c1ccccc1C3=O`, for which the outcome is “active; inactive”.

Turning to `ClCc1ccccn1`, the result was inactive.

Turning to `C=CCN(N=O)C(N)=O`, the result was active.

Turning to `CBr`, the outcome is “inactive; active”.

With `CCNc1nc(Cl)nc(NC(C)(C)C#N)n1`, the outcome was active.

Turning to `CCN(CC(F)(F)F)N=O`, the result was active.

Turning to `CC(C)(C)c1cc([N+](=O)[O-])cc([N+](=O)[O-])c1OS(C)(=O)=O`, the result was inactive.

Consider `COC(=O)C(c1ccccc1)C1CCCCN1` (configuration not stated), for which the result was active.

Take `O=C1Nc2ccc(Cl)cc2C(c2ccccc2)=NC1O` (configuration not stated): the result was active.

For the molecule `Cc1cc(=O)n(-c2ccccc2)n1C`, the outcome was “active; inactive”.

For the molecule `CC(=O)c1ccc(S(=O)(=O)NC(=O)NC2CCCCC2)cc1`, the result was inactive.

As to `Cc1c(COC(=O)C2C(/C=C(\Cl)C(F)(F)F)C2(C)C)cccc1-c1ccccc1` (configuration not stated), the outcome is “inactive; active”.

`Brc1cc(Br)c(-c2cc(Br)c(Br)cc2Br)cc1Br`: the outcome was active.

For the molecule `C=C1C/C(=C/C)C(=O)O[C@@H]2CCN3CC=C(COC(=O)[C@@]1(O)CO)[C@H]23`, the outcome is “active; inactive”.

As to `Cc1cc(O)c2c(c1O)C(=O)C13C(=C2O)C(=O)C2C(O)C1C1C(O)C3C(=O)C3=C(O)c4c(O)cc(C)c(O)c4C(=O)C321` (configuration not stated), the outcome was active.

`O=NN1CCOC1`: the outcome was “active; inactive”.

For the molecule `NC(=O)Cc1c([O-])on[n+]1Cc1ccccc1`, the outcome was “active; inactive”.

Consider `O=NN1CCCCC1`, for which the outcome is “active; inactive”.

With `CN1C(=O)C(O)N=C(c2ccccc2)c2cc(Cl)ccc21` (configuration not stated), the result was inactive.

Consider `CCC(C)[N+](=O)[O-]` (configuration not stated), for which the result was active.

With `CCC(C(=O)NC(N)=O)c1ccccc1` (configuration not stated), the result was inactive.

As to `CNC(=O)O/N=C/C(C)(C)SC`, the result was inactive.

For the molecule `C[C@]12CC[C@@H]3c4ccc(O)cc4CC[C@H]3[C@@H]1CC[C@@H]2O`, the outcome was inactive.

Regarding `COC(=O)c1ccc(C(=O)OC)cc1`, the outcome was “inactive; active”.

For the molecule `O=c1c(CO)c/c(=N/Nc2ccc(S(=O)(=O)O)c3ccccc23)c(=O)/c1=N/Nc1ccc(S(=O)(=O)O)c2ccccc12`, the outcome was inactive.

Regarding `NNC(N)=O`, the outcome was “active; inactive”.

Regarding `CCCCCN(CCCCC)N=O`, the outcome is “active; inactive”.

On to `C=C(C)[C@H]1Cc2c(ccc3c2O[C@@H]2COc4cc(OC)c(OC)cc4[C@@H]2C3=O)O1`, for which the outcome was “inactive; active”.

On to `COc1ccc(C(Cl)=C(c2ccc(OC)cc2)c2ccc(OC)cc2)cc1`, for which the outcome was inactive.

Consider `ClC(Cl)=C(Cl)Cl`, for which the outcome is “active; inactive”.

As to `O=C1N(CCO)CCN1/N=C/c1ccc([N+](=O)[O-])o1`, the outcome was active.

In the case of `Oc1ccc2ccccc2c1N=Nc1ccccc1`, the outcome was active.

Take `O=CNNc1nc(-c2ccco2)cs1`: the outcome was inactive.

With `Nc1ccc2c(c1)oc1ccccc12`, the outcome was active.

In the case of `CCCCN(N=O)C(=N)N[N+](=O)[O-]`, the outcome was inactive.

`O=NN(CCO)CC(O)CO` (configuration not stated): the outcome was active.

In the case of `ClC(Br)Br`, the result was active.

For `Cc1ccc2c(c1)C(N1CCN(C)CC1)=Nc1ccccc1S2`, the result was inactive.

Take `CCCCN(N=O)C(N)=O`: the outcome was active.

`Nc1ncn([C@@H]2O[C@H](CO)[C@@H](O)[C@H]2O)c(=O)n1`: the result was active.

Turning to `COC(=O)C1=CCCN(C)C1`, the result was active.

`CC(=O)Nc1ccc(-c2ccccc2)cc1O`: the outcome was “inactive; active”.

As to `FC(F)=C(F)F`, the outcome is “active; inactive”.

Regarding `NC(=O)c1cnccn1`, the result was inactive.

For `CC(Oc1cc(Cl)c(Cl)cc1Cl)C(=O)O` (configuration not stated), the result was inactive.

For `CCNN`, the result was active.

On to `CCCC(CCC)C(=O)O`, for which the result was active.

With `NC(=O)CCCCn1ccc(NC(N)=NCC(F)(F)F)n1`, the outcome was “active; inactive”.

Take `C/C=C/C=O`: the outcome was active.

Consider `C=CC(N)=O`, for which the outcome was “active; inactive”.

Regarding `ClC1C2(Cl)C3C4C5OC5C5C4C1(Cl)C(Cl)(C53)C2(Cl)Cl` (configuration not stated), the outcome was inactive.

As to `Cn1cc(C(=O)O)c(=O)c2ccc(/C=C/c3ccc([N+](=O)[O-])o3)nc21`, the outcome was “active; inactive”.

Take `O=[N+]([O-])c1ccc(Nc2ccc(Nc3ccccc3)c(S(=O)(=O)O)c2)c([N+](=O)[O-])c1`: the outcome is “active; inactive”.

In the case of `COc1cc(OC)c2c3c(c(=O)oc2c1)CCC3`, the result was inactive.

Regarding `COc1cccc2c1cc([N+](=O)[O-])c1c(C(=O)O)cc3c(c12)OCO3`, the outcome was “active; inactive”.

`O=C(Nc1cccc2c(=O)cc(-c3nn[nH]n3)oc12)c1ccc(OCCCCc2ccccc2)cc1`: the outcome was “inactive; active”.

Regarding `Cc1cc(O)c(C)c2c1OC(C)(CCCC(C)CCCC(C)CCCC(C)C)CC2` (configuration not stated), the outcome was active.

For `NNc1nc(-c2ccc(N)cc2)cs1`, the outcome was active.

With `NCCCC(N)(C(=O)O)C(F)F` (configuration not stated), the outcome was inactive.

In the case of `CC(=O)Nc1ccc2c(c1)Cc1ccccc1-2`, the outcome was active.

On to `NCCc1ccc(O)c(O)c1`, for which the outcome was inactive.

Turning to `COP(=S)(OC)SCn1nnc2ccccc2c1=O`, the result was inactive.

As to `Cc1cc(O)ccc1O`, the outcome was “inactive; active”.

Turning to `CCC[N+](=O)[O-]`, the outcome was inactive.

Regarding `S=C=NCCc1ccccc1`, the outcome is “inactive; active”.

Turning to `OB(O)O`, the outcome is “inactive; active”.

Take `Nc1ccc(Cl)c(N)c1`: the outcome was active.

For the molecule `c1ccc2c(c1)Nc1ccccc1S2`, the outcome was inactive.

Take `O=C1NCCN1`: the result was inactive.

On to `CCN(Cc1cccc(S(=O)(=O)O)c1)c1ccc(C(=C2C=CC(=[N+](CC)Cc3cccc(S(=O)(=O)O)c3)C=C2)c2ccc(O)cc2S(=O)(=O)[O-])cc1`, for which the result was inactive.

With `CC(O)CNCC(C)O` (configuration not stated), the result was inactive.

Source of the values: PubChem BioAssay AID1189 (EPA DSSTox, 2008).
